Entries after “also recorded” stand apart in the source; their conditions may differ.
Columns and labels:
EYFP-hCAR = molecular target: T1, EYFP-hCAR (Homo sapiens, UniProt Q14994); test: Nuclear translocation of Ad/EYFP-hCAR in human primary hepatocytes; format: cell-based; conditions: HPH
T1 construct: expressed in transfected cells; host or cells: human primary hepatocytes infected with Ad/EYFP-hCAR
T1 sequence (Q14994 1-348 isoform Q14994-2): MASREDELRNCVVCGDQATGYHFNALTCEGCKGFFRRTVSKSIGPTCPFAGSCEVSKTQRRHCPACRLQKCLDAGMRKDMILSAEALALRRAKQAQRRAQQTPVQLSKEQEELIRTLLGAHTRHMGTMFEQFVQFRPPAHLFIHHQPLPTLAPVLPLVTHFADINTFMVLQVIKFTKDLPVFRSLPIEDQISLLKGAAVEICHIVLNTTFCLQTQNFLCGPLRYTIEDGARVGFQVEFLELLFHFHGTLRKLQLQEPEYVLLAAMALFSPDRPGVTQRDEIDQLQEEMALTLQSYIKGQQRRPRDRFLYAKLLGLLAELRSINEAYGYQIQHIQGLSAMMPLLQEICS
Procedure: A recombinant adenovirus expressing enhanced yellow fluorescent protein-tagged hCAR (Ad/EYFP-hCAR) was generated as described previously. Hepatocytes cultured in 96-well collagen-coated plates in serum free Williams’ E medium were infected with Ad/EFYP-hCAR (1 μl/well) for 12 h before treatment with the vehicle control, DMSO (0.1%), PB (1 mM), and selected compounds for another 8 h. Subcellular localization of hCAR was visualized using a Nikon (Tokyo, Japan) C1-LU3 instrument based on an inverted Nikon Eclipse TE2000 microscope.

CYP2B6 = CYP2B6 mRNA expression in HPH (real-time PCR); conditions: HPH; for Induction of hCAR target genes: target genes CYP2B6 and CYP3A4; for Effect on CYP2B6 mRNA expression: 24 h, vs vehicle control (0.1% DMSO)
human CAR (hCAR) [1] = molecular target: T2, human CAR (hCAR) (Homo sapiens, UniProt Q14994); test: hCAR luciferase reporter qHTS, agonist mode (HepG2-CYP2B6-hCAR cells, PK11195 co-treatment); conditions: for EC50 / Follow-up Confirmation Efficacy / Primary Screen Efficacy: agonist mode; for Follow-up Confirmation Efficacy: relative to CITCO (100%); for Primary Screen Efficacy: relative to CITCO Emax (100%)
T2 sequence (Q14994 1-348 isoform Q14994-2): T1 sequence (Q14994 1-348 isoform Q14994-2)

HepG2-CYP2B6-hCAR cells = test: Cell viability assay (CellTiter-Glo ATP quantitation); format: cell-based, human; set-up: key to Cytotoxicity (activity call): Inactive: considered inactive if efficacy is less than 30%; conditions: 24 h
Procedure: The potential cytotoxicity of the NPC compounds in HepG2-CYP2B6-hCAR cells was measured using a luciferase-coupled ATP quantitation assay (CellTiter-Glo viability assay, Promega). The change of intracellular ATP content indicates the number of metabolically competent cells. The cells were seeded at 2,500 cells/5 μl in 1536-well plates and were exposed to each test compound at concentrations and treatment duration as previously mentioned. The assay plates were incubated for 24 h at 37 °C, followed by the addition of 4 μl/well of CellTiter-Glo reagent. After 30 min incubation at RT, the luminescence intensity of the plates was measured using a ViewLux plate reader.

CYP3A4 = CYP3A4 mRNA expression in HPH (real-time PCR); format: cell-based, human; conditions: HPH, 24 h, vs vehicle control (0.1% DMSO)
hPXR = molecular target: T3, hPXR (Homo sapiens, UniProt O75469); test: Transient hPXR luciferase assay in HepG2 cells (CYP2B6-2.2 kb reporter); format: cell-based; conditions: HepG2, 24 h, in the presence or absence of rifampicin (10 μM)
T3 construct: expressed in transfected cells; host or cells: HepG2 (transient transfection)
T3 sequence (O75469 1-434): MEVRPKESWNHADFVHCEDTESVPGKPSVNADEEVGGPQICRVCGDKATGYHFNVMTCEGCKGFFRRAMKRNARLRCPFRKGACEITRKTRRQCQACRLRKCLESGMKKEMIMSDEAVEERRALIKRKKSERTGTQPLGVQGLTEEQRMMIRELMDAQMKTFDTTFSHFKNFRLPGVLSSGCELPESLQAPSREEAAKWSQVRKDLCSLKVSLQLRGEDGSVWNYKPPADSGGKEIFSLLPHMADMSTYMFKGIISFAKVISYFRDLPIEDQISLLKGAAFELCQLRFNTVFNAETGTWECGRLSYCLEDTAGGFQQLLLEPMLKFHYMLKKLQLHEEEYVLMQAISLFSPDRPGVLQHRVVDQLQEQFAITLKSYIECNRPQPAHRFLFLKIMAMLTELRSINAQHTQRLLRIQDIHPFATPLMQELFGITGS
Procedure: HepG2 cells cultured in a 24-well plate were co-transfected with the CYP2B6-2.2 kb reporter and hPXR expression vectors using a Lipofectamine® 2000 Transfection Kit (Life Technologies) following the manufacturer’s instruction. […] Cell lysates were assayed for firefly luciferase activities normalized against the activities of co-transfected Renilla luciferase using a Dual-Luciferase Kit (Promega). Data were represented as mean±SD of three individual transfections.

CAR, CYP2B6, or CYP3A4 = conditions: previously known; reference not given; cited from earlier work
human CAR (hCAR) [2] = molecular target: T2, human CAR (hCAR); test: hCAR luciferase reporter qHTS, antagonist mode (HepG2-CYP2B6-hCAR cells, CITCO co-treatment); conditions: for IC50 / Follow-up Confirmation Efficacy / Primary Screen Efficacy: antagonist mode; for Follow-up Confirmation Efficacy / Primary Screen Efficacy: relative to PK11195 (100%);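 on all read-outs here: stable HepG2 line carrying hCAR plus a CYP2B6 promoter (PBREM/XREM) luciferase reporter, 1536-well format, 24 h compound exposure at 37 °C, then luminescence read with ONE-Glo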
[3] = Follow-up Confirmation Potency (EC50), follow-up cherry-pick, 11-point titration
[4] = Primary Screen Potency (EC50), primary qHTS, 2.5 μM PK11195, 24 h
[5] = Follow-up Confirmation Potency (IC50), follow-up cherry-pick, 11-point titration
[6] = Primary Screen Potency (IC50), primary qHTS, 0.1 μM CITCO, 24 h

Compound | EC50 (human CAR (hCAR) [1]; [3]) | EC50 (human CAR (hCAR) [1]; [4]) | Follow-up Confirmation Efficacy (human CAR (hCAR) [1]; follow-up cherry-pick) | Primary Screen Efficacy (human CAR (hCAR) [1]; primary qHTS) | Cytotoxicity (activity call) (HepG2-CYP2B6-hCAR cells) | Effect on CYP3A4 mRNA expression (CYP3A4) | Known modulator of CAR, CYP2B6, or CYP3A4? (CAR, CYP2B6, or CYP3A4) | IC50 (human CAR (hCAR) [2]; [5]) | IC50 (human CAR (hCAR) [2]; [6]) | Follow-up Confirmation Efficacy (human CAR (hCAR) [2]; follow-up cherry-pick) | Primary Screen Efficacy (human CAR (hCAR) [2]; primary qHTS) | also measured
Nc1ccc(Cl)cc1C(=O)c1ccccc1F [2-Amino-5-chloro-2’-fluorobenzophenone] | 15.6 µM | 3.4 µM | 67% | 60% |  |  |  |  |  |  |  | hCAR nuclear translocation (in words) (EYFP-hCAR; listed as ACFB): didn’t translocate hCAR; also recorded: neither translocated hCAR; Induction of hCAR target genes (CYP2B6; listed as ACFB): negligible induction; also recorded: nor induced the expression of its target genes
Nc1ncnc2c1ncn2CCOCP(=O)(O)O [Adefovir] |  |  |  |  | Inactive | negligible effect | CYP3A4 inhibitor | 0.77 µM | 0.76 µM | -87% | -102% | Effect on basal and RIF-induced PXR activity (hPXR): no effects on either basal or RIF-induced hPXR activation
CN1CCc2cccc3c2[C@H]1Cc1ccc(O)c(O)c1-3 [Apomorphine] | 13.3 µM | 19 µM | 38% | 21% |  |  |  |  |  |  |  | hCAR nuclear translocation (in words) (EYFP-hCAR): didn’t translocate hCAR; also recorded: neither translocated hCAR; Induction of hCAR target genes (CYP2B6): negligible induction; also recorded: nor induced the expression of its target genes
CCO[C@H]1O[C@@H]2O[C@@]3(C)CC[C@H]4[C@H](C)CC[C@@H]([C@H]1C)[C@@]24OO3 [Artemotil] | 5 µM | 2.1 µM | 71% | 33% |  | markedly enhanced | Activates CAR and Induces CYP2B6 |  |  |  |  | Effect on CYP2B6 mRNA expression (CYP2B6): significantly induced
COc1cc(Nc2c(C#N)cnc3cc(OCCCN4CCN(C)CC4)c(OC)cc23)c(Cl)cc1Cl [Bosutinib] |  |  |  |  | Inactive |  |  |  |  |  |  | 
Clc1ccc(-c2nc3sccn3c2C=NOCc2ccc(Cl)c(Cl)c2)cc1 [CITCO, 6-(4-chlorophenyl) imidazo[2,1-b][1,3]-thiazole-5-carbaldehyde-O-(3,4-dichlorobenzyl)oxime] |  |  |  |  |  |  |  |  |  |  |  | Effect on hCAR activity (agonist mode optimization, Fig. 1A) (human CAR (hCAR) [1]; PK11195 at 2.5 μM and 5.0 μM, CITCO co-treated with PK11195): restored the hCAR activity in a concentration-dependent manner; Effect on hCAR activity (antagonist mode optimization, Fig. 4A) (human CAR (hCAR) [2]; PK11195 at varying concentrations, CITCO co-treatment at 75 nM, 100 nM, or 200 nM): moderate but concentration-dependent increase of the basal activity of hCAR
COc1cc(N)c(Cl)cc1C(=O)NC1CCN(Cc2ccccc2)CC1 [Clebopride] | 9.4 µM | 7.6 µM | 80% | 52% |  | markedly enhanced |  |  |  |  |  | Effect on CYP2B6 mRNA expression (CYP2B6): significantly induced; also recorded: potent induction exceeding that of CITCO
C[C@H]1O[C@@H](O[C@H]2[C@@H](O)C[C@H](O[C@H]3[C@@H](O)C[C@H](O[C@H]4CC[C@@]5(C)[C@H](CC[C@@H]6[C@@H]5CC[C@]5(C)[C@@H](C7=CC(=O)OC7)CC[C@]65O)C4)O[C@@H]3C)O[C@@H]2C)C[C@H](O)[C@@H]1O [Digitoxin] |  |  |  |  | Inactive |  |  | 0.29 µM | 0.08 µM | -98% | -76% | 
CO[C@@]12[C@H](COC(N)=O)C3=C(C(=O)C(C)=C(N)C3=O)N1C[C@@H]1N[C@@H]12 [Mitomycin C] |  |  |  |  | Inactive |  | PXR deactivator | 0.75 µM | 0.43 µM | -110% | -91% | Identified as hCAR antagonist/deactivator in the qHTS (human CAR (hCAR) [2]; primary qHTS of 2816 NPC compounds): antagonist of hCAR
Cc1c(O)cccc1C(=O)N[C@@H](CSc1ccccc1)[C@H](O)CN1C[C@H]2CCCC[C@H]2C[C@H]1C(=O)NC(C)(C)C [Nelfinavir] |  |  |  |  | Inactive | negligible effect |  | 11 µM | 9.52 µM | -101% | -88% | Effect on basal and RIF-induced PXR activity (hPXR): induced hPXR activation to an extent closer to that of RIF

— article PMC4438668, “Quantitative High-Throughput Identification of Drugs as Modulators of Human Constitutive Androstane Receptor” (Scientific Reports, 2015)
